Reference: patent publication US20230091047A1 (priority 2019, published 2023)
Where two headings read alike, the source gives them in different places.

How the values were obtained:
[1] = system: HBV (HepG2.117 cell line, inducibly HBV producing); assay: Anti-HBV activity: intracellular HBV DNA by real-time PCR in HepG2.117 cells after 3 days of treatment; type: cell-based, hepatitis B virus
Summary of the method: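 Antiviral effect is expressed through intracellular HBV DNA levels, determined by real-time PCR with a virus-specific probe. These levels were measured after 3 days of treatment with compound dilutions, in HepG2.117 cells induced to replicate HBV.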

HepG2 cells = assay: in vitro; type: cell-based
Summary of the method: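 Luminescent ATP quantitation served as the viability endpoint following a 3- or 4-day incubation with test compounds.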

[2] = HepG2.117 cells, intracellular HBV DNA by real-time PCR, 3 days of treatment, mean value; read-out: EC50 (μM, mean value)
[3] = HepG2 or HepG2.117 cells, ATPlite, 3-days incubation (not marked with *), mean value, read-out: CC50 (μM, mean value)
[4] = HepG2.117 cells, 3 days of treatment, intracellular HBV DNA by real-time PCR; mean value; read-out: EC50 (μM, mean value)
[5] = 3-days incubation (unmarked values), HepG2 or HepG2.117 cells, ATPlite, mean value, read-out: CC50 (μM, mean value)

Row | SMILES | EC50 [1, 2] [µM] | CC50 (HepG2 cells; [3]) [µM] | other results
1 | CNC(=O)c1ccc(-n2c(NC(C)C)nc3c(c2=O)C[C@@H](C)N(C(=O)c2ccc(Cl)c(C(F)(F)F)c2)C3)c(Cl)c1 (single isomer, unassigned) [Compound C639b] | 0.02 | 25.4 | –
2 | CNC(=O)c1ccc(-n2c(NC(C)C)nc3c(c2=O)C[C@@H](C)N(C(=O)c2ccc(Cl)c(C(F)(F)F)c2)C3)c(OC)c1 (single isomer, unassigned) [Compound C643a] | 0.04 | > 50 | –
3 | CNC(=O)c1ccc(-n2c(NC(C)C)nc3c(c2=O)C[C@@H](C)N(C(=O)c2ccc(Cl)c(C(F)(F)F)c2)C3)c(OC)c1 (single isomer, unassigned) [Compound C643b] | 0.05 | > 50 | –
4 | CNC(=O)c1ccc(-n2c(NC(C)C)nc3c(c2=O)C[C@@H](C)N(C(=O)c2ccc(Cl)c(C(F)(F)F)c2)C3)c(C2CC2)c1 (single isomer, unassigned) [Compound C661a] | 0.07 | > 50 | –
5 | CNC(=O)c1ccc(-n2c(NC(C)C)nc3c(c2=O)C[C@@H](C)N(C(=O)c2ccc(Cl)c(C(F)(F)F)c2)C3)c(C2CC2)c1 (single isomer, unassigned) [Compound C661b] | 0.06 | 25.4 | –
6 | CNC(=O)c1ccc(-n2c(NC(C)C)nc3c(c2=O)C[C@@H](C)N(C(=O)c2ccc(Cl)c(C(F)(F)F)c2)C3)c(C(F)F)c1 (single isomer, unassigned) [Compound C669b] | 0.04 | > 50 | –
7 | CC(C)Nc1nc2c(c(=O)n1-c1ccc(C(=O)NC3CC3)cc1Cl)C[C@@H](C)N(C(=O)c1ccc(Cl)c(C(F)(F)F)c1)C2 (single isomer, unassigned) [Compound C673b] | 0.03 | > 50 | –
8 | CNC(=O)c1ccc(-n2c(N[C@@H](C)C3CC3)nc3c(c2=O)C[C@@H](C)N(C(=O)c2ccc(Cl)c(C(F)(F)F)c2)C3)c(Cl)c1 (single isomer, unassigned) [Compound C676b] | 0.02 | 28.7 | –
9 | COc1cc(C(=O)NC2CC2)ccc1-n1c(NC(C)C)nc2c(c1=O)C[C@@H](C)N(C(=O)c1ccc(Cl)c(C(F)(F)F)c1)C2 (single isomer, unassigned) [Compound C678b] | 0.04 | 44.1 | –
10 | CNC(=O)c1ccc(-n2c(NC(C)C)nc3c(c2=O)C[C@@H](C)N(C(=O)c2ccc(Cl)c(C(F)F)c2)C3)c(Cl)c1 (single isomer, unassigned) [Compound C685b] | 0.03 | > 50 | –
11 | CNC(=O)c1ccc(-n2c(N3CC4CC3C4)nc3c(c2=O)C[C@@H](C)N(C(=O)c2ccc(Cl)c(C(F)(F)F)c2)C3)c(Cl)c1 (single isomer, unassigned) [Compound C701b] | – | – | EC50 [1, 4]: 0.03 µM; CC50 (HepG2 cells; 3-days incubation (unmarked values), HepG2 or HepG2.117 cells, ATPlite viability, mean value, read-out: CC50 (μM, mean value)): 25.4 µM
12 | CC(C)Nc1nc2c(c(=O)n1-c1ccc(S(C)(=O)=O)cc1)C[C@@H](C)N(C(=O)c1ccc(Cl)c(Cl)c1)C2 [Compound C142, (6R)-7-(3,4-dichlorobenzoyl)-3-[4-(methanesulfonyl)phenyl]-6-methyl-2-[(propan-2-yl)amino]-5,6,7,8-tetrahydropyrido[3,4-d]pyrimidin-4(3H)-one] | – | – | EC50 [1, 4]: 0.12 µM; CC50 (HepG2 cells; [5]): > 50 µM
13 | CNC(=O)c1ccc(-n2c(NC(C)C)nc3c(c2=O)C[C@@H](C)N(C(=O)c2ccc(Cl)c(Cl)c2)C3)c(C)c1 [Compound C300b, 4-[(6R)-7-(3,4-dichlorobenzoyl)-6-methyl-4-oxo-2-[(propan-2-yl)amino]-5,6,7,8-tetrahydropyrido[3,4-d]pyrimidin-3(4H)-yl]-N,3-dimethylbenzamide] | – | – | EC50 [1, 4]: 0.09 µM; CC50 (HepG2 cells; [5]): > 50 µM
14 | CNC(=O)c1ccc(-n2c(N[C@@H](C)c3ccccc3)nc3c(c2=O)C[C@@H](C)N(C(=O)c2ccc(Cl)c(Cl)c2)C3)c(Cl)c1 [Compound C386] | 0.12 | > 50 | –
15 | CNC(=O)c1ccc(-n2c(N[C@@H](C)C3CC3)nc3c(c2=O)C[C@@H](C)N(C(=O)c2ccc(Cl)c(Cl)c2)C3)c(Cl)c1 [Compound C387] | 0.06 | 38 | –
16 | CC(C)Nc1nc2c(c(=O)n1-c1ccc(-c3ncc[nH]3)cc1Cl)C[C@@H](C)N(C(=O)c1ccc(Cl)c(Cl)c1)C2 [Compound C393] | – | 24.1 | EC50 ([1]; Hepatitis B virus, HepG2.117, 72 h, HepG2.117 cells, intracellular HBV DNA by real-time PCR, 3 days of treatment, mean value; read-out: EC50 (μM, mean value)): 0.17 µM
17 | CNC(=O)c1ccc(-n2c(OC(C)C)nc3c(c2=O)C[C@@H](C)N(C(=O)c2ccc(Cl)c(Cl)c2)C3)c(Cl)c1 [Compound C403b] | 0.08 | 31.1 | –
18 | CNC(=O)c1ccc(-n2c(N[C@H](C)c3ccc(OC(F)F)cc3)nc3c(c2=O)C[C@@H](C)N(C(=O)c2ccc(Cl)c(Cl)c2)C3)cc1 [Compound C411b] | 0.07 | 42.1 | –
19 | CNC(=O)c1ccc(-n2c(N[C@H]3C[C@@H]3c3ccc(OC)cc3)nc3c(c2=O)C[C@@H](C)N(C(=O)c2ccc(Cl)c(Cl)c2)C3)cc1 [Compound C452b] | > 10 | > 50 | –
20 | CNC(=O)c1ccc(-n2c(NCc3nc(-c4ccccc4)n[nH]3)nc3c(c2=O)C[C@@H](C)N(C(=O)c2ccc(Cl)c(Cl)c2)C3)cc1 [Compound C538] | 20.6 | > 50 | –
21 | CNC(=O)c1cnc(-n2c(N[C@@H](C)c3ccc(OC(F)(F)F)cc3)nc3c(c2=O)C[C@@H](C)N(C(=O)c2ccc(Cl)c(Cl)c2)C3)cn1 [Compound C617] | 0.08 | > 50 | –
22 | CNC(=O)[C@H]1CC[C@@H](n2c(N[C@H](C)c3ccc(OC(F)(F)F)cc3)nc3c(c2=O)C[C@@H](C)N(C(=O)c2ccc(Cl)c(Cl)c2)C3)CC1 [Compound C636, (1R,4s)-4-((R)-7-(3,4-dichlorobenzoyl)-6-methyl-4-oxo-2-(((S)-1-(4-(trifluoromethoxy)phenyl)ethyl)amino)-5,6,7,8-tetrahydropyrido[3,4-d]pyrimidin-3(4H)-yl)-N-methylcyclohexane-1-carboxamide] | 0.23 | – | CC50 (HepG2 cells): > 35 µM
